#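 Dose response: 5 concentrations. Exposure: 48 h. Format: 96-well plates. Endpoint: linear interpolation; highest concentration if not reached. The concentration for 50% growth inhibition is given as GI50. TGI denotes the concentration required for complete inhibition of growth.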
# Experiments:
# Experiment in all cases: NCI-60 cell line screen, 48 h
# UACC-62 melanoma = tested on: UACC-62 melanoma
# M14 melanoma = tested on: M14 melanoma
# HCC-2998 colon = tested on: HCC-2998 colon
# LOX IMVI melanoma = tested on: LOX IMVI melanoma
# OVCAR-3 ovarian = tested on: OVCAR-3 ovarian
# UO-31 renal = tested on: UO-31 renal
# HCT-116 colon = tested on: HCT-116 colon
# HT29 colon = tested on: HT29 colon
# SK-MEL-28 melanoma = tested on: SK-MEL-28 melanoma
# BT-549 breast = tested on: BT-549 breast
Structure (SMILES),TGI (UACC-62 melanoma),TGI (M14 melanoma),TGI (HCC-2998 colon),TGI (LOX IMVI melanoma),TGI (OVCAR-3 ovarian),TGI (UO-31 renal),TGI (HCT-116 colon),TGI (HT29 colon),TGI (SK-MEL-28 melanoma),GI50 (BT-549 breast),TGI (BT-549 breast),GI50 (M14 melanoma),GI50 (LOX IMVI melanoma),GI50 (OVCAR-3 ovarian),GI50 (UO-31 renal),GI50 (HCT-116 colon),GI50 (HT29 colon),GI50 (SK-MEL-28 melanoma),GI50 (UACC-62 melanoma),GI50 (HCC-2998 colon)
Cc1ccc(NC(=O)CCc2nnc3s/c(=C\c4cccc([N+](=O)[O-])c4)c(=O)n23)cc1,> 100 µM,> 100 µM,> 100 µM,> 100 µM,> 100 µM,> 100 µM,> 100 µM,> 100 µM,> 100 µM,–,–,–,–,–,–,–,–,–,–,–
c1ccc(COCC[P+](c2ccccc2)(c2ccccc2)c2ccccc2)cc1,–,13.4 µM,–,6.05 µM,17.8 µM,28.4 µM,12.5 µM,8.3 µM,12.2 µM,0.953 µM,15.5 µM,2.12 µM,1.87 µM,1.07 µM,4.82 µM,0.679 µM,0.478 µM,1.59 µM,–,–
Cc1cc(Cl)ccc1NC(=O)CC1SC(=NC(=O)c2ccccc2Cl)NC1=O (configuration not stated),71.2 µM,32 µM,> 100 µM,38.6 µM,36.3 µM,44.6 µM,32 µM,45 µM,44.8 µM,–,–,–,–,–,–,–,–,–,–,–
CS(=O)(=O)O[C@H]1C(=O)N(c2cc3c4ccccc4ccc3c3ccccc23)[C@@H]1c1ccccn1,> 100 µM,5.23 µM,> 100 µM,> 100 µM,14.9 µM,> 100 µM,23 µM,–,> 100 µM,0.501 µM,9.79 µM,0.317 µM,0.588 µM,0.411 µM,0.76 µM,0.372 µM,–,0.783 µM,0.347 µM,1.25 µM
CC12CCCC(C#N)(C1)OC2=O (configuration not stated),> 100 µM,> 100 µM,–,–,> 100 µM,> 100 µM,> 100 µM,> 100 µM,> 100 µM,–,–,–,–,–,–,–,–,–,–,–
O=C(CCC(=O)Nc1ccc(Cl)cc1)CC(=O)c1ccc2ccccc2c1,> 100 µM,> 100 µM,> 100 µM,> 100 µM,> 100 µM,> 100 µM,> 100 µM,> 100 µM,> 100 µM,–,–,–,–,–,–,–,–,–,–,–
CC(=O)n1nnc2ccc([N+](=O)[O-])cc21,> 100 µM,> 100 µM,–,> 100 µM,> 100 µM,> 100 µM,> 100 µM,> 100 µM,> 100 µM,–,–,–,–,–,–,–,–,–,–,–
COC1=CC(c2ccc[nH]2)=N/C1=C\c1[nH]c(C)c(C(=O)Oc2ccccc2)c1C,0.427 µM,–,1.42 µM,0.0472 µM,1.18 µM,0.35 µM,1.17 µM,–,1.99 µM,0.384 µM,4.2 µM,–,0.0197 µM,0.212 µM,0.15 µM,0.0427 µM,–,0.595 µM,0.198 µM,0.243 µM
COc1cccc(CCNC(=O)CC(c2ccccc2)(c2ccccc2)c2ccccc2)c1,> 100 µM,–,–,–,> 100 µM,> 100 µM,26.7 µM,–,> 100 µM,> 100 µM,> 100 µM,–,–,4.77 µM,4.75 µM,2.58 µM,–,> 100 µM,0.613 µM,–
N#CCCN(C1=NN(C(=O)CC(=O)Nc2ccc(Cl)cc2)C(c2ccccc2)C1)c1ccc(Cl)cc1 (configuration not stated),> 100 µM,> 100 µM,> 100 µM,> 100 µM,> 100 µM,> 100 µM,> 100 µM,> 100 µM,> 100 µM,–,–,–,–,–,–,–,–,–,–,–
O=C1c2cccc([N+](=O)[O-])c2C(=O)c2nccnc21,2.62 µM,2.96 µM,6.17 µM,2.68 µM,3.88 µM,2.6 µM,3.66 µM,4.3 µM,3.01 µM,–,–,–,–,–,–,–,–,–,–,–
CC(=O)NNc1nc(C)c(C(/C=C/c2ccc(Cl)cc2)=N\N=C(N)N)s1,> 100 µM,> 100 µM,> 100 µM,> 100 µM,> 100 µM,> 100 µM,> 100 µM,> 100 µM,> 100 µM,–,–,–,–,–,–,–,–,–,–,–
C/C=C(\C)c1cc(=O)c2c(C)cc3c(c2o1)C(OC)(OC(C)=O)c1c(O)c(C2CC(C)(N(C)C)C(OC(C)=O)C(C)O2)cc(C2CC(N(C)C)C(OC(C)=O)C(C)O2)c1C3=O (configuration not stated),–,–,–,–,> 41.8 µM,4.68 µM,> 34.1 µM,> 20.4 µM,26.1 µM,–,7.47 µM,–,–,–,–,–,–,–,–,–
O=C1Nc2ccc(O)cc2/C1=C\c1ccncc1,26.4 µM,39.6 µM,–,25.6 µM,41 µM,31.8 µM,39.9 µM,–,–,15.2 µM,43.6 µM,15.8 µM,12 µM,13.3 µM,14.1 µM,14.7 µM,–,–,12.2 µM,–
COC(=O)C1CC(c2ccc(Cl)cc2)=NO1 (configuration not stated),> 100 µM,> 100 µM,> 100 µM,–,> 100 µM,> 100 µM,> 100 µM,> 100 µM,> 100 µM,–,–,–,–,–,–,–,–,–,–,–
CCSc1nc(NC(C)c2ccccc2)c2cnn(CO)c2n1 (configuration not stated),> 100 µM,> 100 µM,–,> 100 µM,> 100 µM,> 100 µM,> 100 µM,> 100 µM,> 100 µM,17.7 µM,64.1 µM,> 100 µM,37 µM,64.7 µM,66.5 µM,> 100 µM,> 100 µM,87.2 µM,26.6 µM,–
Cc1ccc2nc(Sc3c([N+](=O)[O-])ncn3C)[nH]c2c1,35.7 µM,92.5 µM,30.6 µM,> 100 µM,56.7 µM,88.4 µM,53.9 µM,> 100 µM,> 100 µM,–,–,–,–,–,–,–,–,–,–,–
COc1ccc(NC(=S)C#N)cc1,> 100 µM,> 100 µM,> 100 µM,> 100 µM,> 100 µM,–,> 100 µM,> 100 µM,> 100 µM,–,> 100 µM,–,–,–,–,–,–,–,–,–
COc1cccc(N2C(=O)/C(=C/c3ccc(N(CCC#N)CCC#N)cc3)N=C2c2cc([N+](=O)[O-])ccc2Cl)c1,> 100 µM,> 100 µM,> 100 µM,–,> 100 µM,> 100 µM,–,> 100 µM,> 100 µM,–,–,–,–,–,–,–,–,–,–,–

# From PubChem BioAssay (NCI)
